According to patent US10745401B2, “Condensed lactam derivative” (Sumitomo Dainippon Pharma Co., Ltd., priority 2018, dated 2020):

Legend:
[1] = Test 4: metabolic stability test in human hepatic microsome; assay type: in vitro ADME; settings: 0.1 mg/mL microsome, 0.1 μmol/L compound, 37° C., 30 minutes
How it was run: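 LC-MS quantified remaining parent after 30 min, 37° C, in pH 7.4 25 mmol/L phosphate containing 0.1 mg/mL human hepatic microsomes, 3.2 mmol/L NADPH and 0.1 μmol/L test compound. Value given as −LN(residual ratio)/30/0.1, mL/min/mg protein.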

human 5-HT2A receptor [2] = target: T1, human 5-HT2A receptor (Homo sapiens (Human), UniProt P28223); experiment: Test 1: binding activity for human 5-HT2A receptor ([3H]Ketanserin, CHO cell membrane fraction)
T1 sequence (P28223 whole entry): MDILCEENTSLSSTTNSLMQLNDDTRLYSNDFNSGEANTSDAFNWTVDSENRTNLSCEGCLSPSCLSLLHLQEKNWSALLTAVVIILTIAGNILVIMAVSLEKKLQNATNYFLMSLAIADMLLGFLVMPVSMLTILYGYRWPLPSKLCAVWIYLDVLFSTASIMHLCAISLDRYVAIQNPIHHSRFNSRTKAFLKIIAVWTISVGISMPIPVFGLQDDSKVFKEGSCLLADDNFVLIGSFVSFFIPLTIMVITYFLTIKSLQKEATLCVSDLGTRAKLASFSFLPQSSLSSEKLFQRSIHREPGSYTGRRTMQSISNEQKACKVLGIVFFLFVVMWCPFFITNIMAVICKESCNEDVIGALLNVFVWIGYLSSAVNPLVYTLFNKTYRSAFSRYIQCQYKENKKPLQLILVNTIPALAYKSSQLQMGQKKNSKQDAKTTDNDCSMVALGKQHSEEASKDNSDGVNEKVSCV
Procedure: Test 1: Evaluation of Binding Activity for Human 5-HT1A Receptor, Human 5-HT2A Receptor, and Human D2 Receptor
Binding affinity of the present compound for human 5-HT1A receptor, human 5-HT2A receptor, and human D2 receptor was measured by the following procedures.
Each mixture was incubated at room temperature for 60 minutes. Then, the mixture was added quickly on a glassfiber filter plate (Multiscreen FB, Millipore, Inc.) coated with 0.3% aqueous polyethylenimine, and vacuum-filtered. Radioactivity remaining on the filter was measured with a liquid scintillation counter (PerkinElmer, Inc.). Binding inhibition rate was calculated from the following formula.
Ki of each compound was calculated from the following formula. Binding inhibition constant (Ki)=IC50/(1+S/Kd) wherein S is concentration of ligand; Kd is a binding dissociation constant of ligand to membrane, which is calculated from a saturated binding experiment conducted with the same cell membrane. A small Ki value means strong binding ability to a receptor.

human 5-HT2A receptor [3] = target: T1, human 5-HT2A receptor; experiment: Test 3: antagonist activity for human 5-HT2A receptor (aequorin luminescence, CHO-K1 cells); assay type: cell-based; settings: CHO-K1 cells, 1 nmol/L 5-HT
Procedure: Test 3: Evaluation of Antagonist Activity for Human 5-HT2A Receptor
Aequorin, Gα16 protein, and each receptor were transiently expressed in CHO-K1 cells (Chinese hamster ovary). […] Each compound dissolved in DMSO was added thereto, and changes in luminescence were measured by FDSS/μCELL functional drug screening system (Hamamatsu Photonics K.K.). Antagonist activity was calculated from the following formula. Antagonist activity (%)=100×{(Luminescence of well in the presence of 1 nmol/L 5-HT−Luminescence of well containing solvent)−(Luminescence of well in the presence of test compound and 1 nmol/L 5-HT−Luminescence of well containing solvent)}/(Luminescence of well in the presence of 1 nmol/L 5-HT−Luminescence of well containing solvent)

human 5-HT1A receptor [4] = target: T2, human 5-HT1A receptor (Homo sapiens (Human), UniProt P08908); experiment: Test 2: agonist activity for human 5-HT1A receptor ([35S]GTPγS binding); assay type: biochemical; settings: for Emax at 10 µM: agonist activity in the presence of 10 μM of compound, relative to 100 μmol/L 5-HT; for EC50: [35S]GTPγS binding, concentration at which half the activity of Emax was obtained
T2 sequence (P08908 whole entry): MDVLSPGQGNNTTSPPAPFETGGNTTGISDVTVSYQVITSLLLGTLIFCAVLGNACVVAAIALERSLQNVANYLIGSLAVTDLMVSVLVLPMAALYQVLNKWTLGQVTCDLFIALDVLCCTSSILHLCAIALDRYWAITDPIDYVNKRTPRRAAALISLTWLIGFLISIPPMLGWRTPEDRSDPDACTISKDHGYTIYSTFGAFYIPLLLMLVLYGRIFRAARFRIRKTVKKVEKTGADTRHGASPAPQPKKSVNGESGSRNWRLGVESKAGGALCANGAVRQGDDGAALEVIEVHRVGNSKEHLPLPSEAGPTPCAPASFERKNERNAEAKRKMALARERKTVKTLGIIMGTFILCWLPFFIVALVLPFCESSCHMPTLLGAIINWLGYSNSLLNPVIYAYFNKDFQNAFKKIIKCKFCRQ
How it was run: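 [35S]GTPγS binding read-out: after 60 min at room temperature with test compound in GDP buffer, human 5-HT1A receptor CHO membranes were vacuum-filtered and retained radioactivity scintillation-counted. Agonist activity calculated by formula.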

hERG channel = hERG channel (Homo sapiens (Human), UniProt Q12809); experiment: Test 6-1: inhibitory activity for hERG channel (auto patch clamp, Qpatch); assay type: cell-based; settings: whole cell auto patch clamp, hERG-CHO cells; read-out: hERG inhibition IC50
hERG channel, sequence (Q12809 whole entry): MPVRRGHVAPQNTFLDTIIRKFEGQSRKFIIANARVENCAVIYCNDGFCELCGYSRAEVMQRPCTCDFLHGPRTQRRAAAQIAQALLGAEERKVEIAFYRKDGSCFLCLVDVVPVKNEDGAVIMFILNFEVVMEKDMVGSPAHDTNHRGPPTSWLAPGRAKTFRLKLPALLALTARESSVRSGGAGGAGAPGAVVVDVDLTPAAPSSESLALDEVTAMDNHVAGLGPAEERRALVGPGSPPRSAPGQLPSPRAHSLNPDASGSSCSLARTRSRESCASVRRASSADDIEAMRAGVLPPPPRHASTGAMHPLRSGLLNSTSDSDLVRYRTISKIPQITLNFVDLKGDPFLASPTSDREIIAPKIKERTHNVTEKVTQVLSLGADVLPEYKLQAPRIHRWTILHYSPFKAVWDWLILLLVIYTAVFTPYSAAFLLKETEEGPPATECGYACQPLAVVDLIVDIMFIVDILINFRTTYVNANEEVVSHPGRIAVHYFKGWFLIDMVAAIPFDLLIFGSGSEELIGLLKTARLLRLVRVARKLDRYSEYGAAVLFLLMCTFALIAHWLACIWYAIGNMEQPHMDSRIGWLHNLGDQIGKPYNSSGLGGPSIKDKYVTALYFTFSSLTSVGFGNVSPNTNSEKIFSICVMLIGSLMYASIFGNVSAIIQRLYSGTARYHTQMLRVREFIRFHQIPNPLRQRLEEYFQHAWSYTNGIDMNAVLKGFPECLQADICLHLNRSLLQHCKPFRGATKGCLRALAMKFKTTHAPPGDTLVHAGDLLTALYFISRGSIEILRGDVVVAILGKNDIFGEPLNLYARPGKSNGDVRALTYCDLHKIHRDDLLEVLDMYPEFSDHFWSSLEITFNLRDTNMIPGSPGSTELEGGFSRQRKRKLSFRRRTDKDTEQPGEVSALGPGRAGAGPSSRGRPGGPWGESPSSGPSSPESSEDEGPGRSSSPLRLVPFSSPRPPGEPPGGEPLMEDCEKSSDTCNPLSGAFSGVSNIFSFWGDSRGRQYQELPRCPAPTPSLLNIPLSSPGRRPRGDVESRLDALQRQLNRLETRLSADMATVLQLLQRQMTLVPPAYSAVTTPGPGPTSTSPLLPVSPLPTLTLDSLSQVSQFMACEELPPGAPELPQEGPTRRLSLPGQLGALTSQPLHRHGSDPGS
How it was run: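 Whole-cell patch clamp on an automated system using CHO cells stably expressing human hERG (IKr); 15 s pulse interval. Four increasing compound concentrations applied cumulatively; mean peak tail current from last 3 stimulations per concentration used. IC50 from inhibition versus pre-compound current, fitted by Hill equation.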

human D2 receptor = human D2 receptor (Homo sapiens (Human), UniProt P14416); experiment: Test 1: binding activity for human D2 receptor ([3H]Spiperone, CHO cell membrane fraction); settings: human D2 receptor, [3H]Spiperone
human D2 receptor, sequence (P14416 whole entry): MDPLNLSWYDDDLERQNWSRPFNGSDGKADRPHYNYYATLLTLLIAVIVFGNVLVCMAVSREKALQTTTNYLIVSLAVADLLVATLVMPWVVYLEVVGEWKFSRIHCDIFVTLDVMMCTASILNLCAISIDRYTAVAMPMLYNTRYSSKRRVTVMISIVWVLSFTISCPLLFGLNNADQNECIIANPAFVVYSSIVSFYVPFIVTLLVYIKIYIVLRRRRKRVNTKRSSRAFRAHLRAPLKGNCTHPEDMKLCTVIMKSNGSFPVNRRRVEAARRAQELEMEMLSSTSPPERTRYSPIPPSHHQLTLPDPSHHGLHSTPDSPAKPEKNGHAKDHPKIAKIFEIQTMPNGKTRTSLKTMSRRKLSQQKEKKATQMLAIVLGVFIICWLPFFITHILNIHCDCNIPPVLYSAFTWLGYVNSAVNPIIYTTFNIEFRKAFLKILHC
How it was run: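 Compound displacement of [3H]ketanserin at 5-HT2A or [3H]spiperone at D2 was measured in CHO membrane fractions after 60 min at room temperature, with filtration and scintillation counting. IC50 was converted to Ki by Cheng–Prusoff using ligand concentration and Kd from saturation binding.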

human 5-HT1A receptor [5] = target: T2, human 5-HT1A receptor; experiment: Test 1: binding activity for human 5-HT1A receptor ([3H]8-OH-DPAT, CHO cell membrane fraction)
How it was run: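 Membranes incubated with [3H]8-OH-DPAT and compound for 60 min at room temperature, then filtered on polyethylenimine-coated glass-fibre plates and counted by liquid scintillation. IC50 from Hill analysis; Ki = IC50/(1+S/Kd), Kd from saturation binding on the same membranes.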

Compound | Metabolic stability in human hepatic microsome [1] [mL/min/mg protein] | Ki (human 5-HT2A receptor [2]) [nM] | IC50 (human 5-HT2A receptor [3]) [nM] | Emax at 10 µM (human 5-HT1A receptor [4]) [%] | IC50 (hERG channel) [nM] | Ki (human D2 receptor) [nM] | IC50 (human 5-HT2A receptor [3]; aequorin luminescence) [nM] | EC50 (human 5-HT1A receptor [4]) [nM] | Ki (human 5-HT1A receptor [5]) [nM]
O=c1c2cnccc2ccn1CCN1CCC(c2noc3ccccc23)CC1 [Example 13] | <0.01 | 8.4 | 71 |  |  |  |  |  | 
O=C1c2cnc(C(F)(F)F)cc2CCN1CCN1CCN(c2nsc3ccccc23)CC1 [Example 110, 2-{2-[4-(1,2-Benzoisothiazol-3-yl)piperazin-1-yl]ethyl}-6-(trifluoromethyl)-3,4-dihydro-2,7-naphthyridin-1(2H)-one] | 0.353 | 2.6 | 42.4 | 65 | 2400 |  |  |  | 
Cc1nc2c(o1)C(=O)N(CCN1CCN(c3noc4ccccc34)CC1)CC2 [Example 178] |  | 179 |  |  |  | > 10000 | 2020 |  | 
Cc1nc2c(o1)C(=O)N(CCN1CCN(c3nsc4ccccc34)CC1)CC2 [Example 45] | 0.032 | 3.1 | 27 | 65 | 7000 |  |  |  | 
Cc1cc2c(cn1)C(=O)N(CCN1CC=C(c3noc4ccccc34)CC1)CC2 [Example 152] |  | 11.4 |  |  |  |  | 82.7 |  | 
O=C1c2ncccc2CCN1CCN1CCN(c2nsc3ccccc23)CC1 [Example 7] | 0.041 | 2.63 | 7.83 | 55 | 5200 |  |  |  | 
Cc1noc2c1C(=O)N(CCN1CCN(c3nsc4ccccc34)CC1)CCC2 [Example 40] | 0.278 | 4.86 | 8.7 | 60 | 1800 |  |  |  | 
Cn1cc2c(n1)CCN(CCN1CCN(c3noc4ccccc34)CC1)C2=O [Example 81] | <0.01 | 10 | 83 | 60 | > 10000 |  |  |  | 
Cn1cc2c(n1)C(=O)N(CCN1CCN(c3nsc4ccccc34)CC1)CCC2 [Example 49] | 0.063 | 1.8 | 7.02 | 64 | 5900 |  |  |  | 
O=C1c2ncccc2CCC1CCN1CCN(c2nsc3ccccc23)CC1 (centres unmarked) [Example 25] | 0.398 | 3.01 | 5.54 | 57 | 400 |  |  |  | 
O=C1c2ncccc2CCN1CCN1CCC(c2noc3cc(F)ccc23)CC1 [Example 4] | 0.011 | 2.4 | 9.95 |  | 400 |  |  |  | 
CC1CN(CCN2CCN(c3noc4ccccc34)CC2)C(=O)c2ccn(C)c21 (centres unmarked) [Example 83] | 0.135 | 4 | 49 | 61 | 8000 |  |  |  | 
O=C1c2ncccc2CCN1CCN1CCN(c2noc3cc(F)ccc23)CC1 [Example 123] | <0.05 |  |  | 71 | 3900 |  | 22.9 | 186 | 162
O=C1c2ncccc2CCC1CCN1CCN(c2noc3ccccc23)CC1 (centres unmarked) [Example 23] | 0.109 | 6 | 7.29 | 55 | 1900 |  |  |  | 
CCc1nc2c(o1)C(=O)N(CCN1CCC(c3noc4ccccc34)CC1)CC2 [Example 72] |  | 7.8 | 72 |  |  |  |  |  | 
O=C1c2cncnc2CCN1CCN1CCC(c2noc3ccccc23)CC1 [Example 57] | 0.013 | 7.6 | 76.7 | 61 | 2200 |  |  |  | 

Compound | Metabolic stability in human hepatic microsome [1] [mL/min/mg protein] | Ki (human 5-HT2A receptor [2]) [nM] | IC50 (human 5-HT2A receptor [3]) [nM] | Emax at 10 µM (human 5-HT1A receptor [4]) [%] | IC50 (hERG channel) [nM] | Ki (human D2 receptor) [nM] | IC50 (human 5-HT2A receptor [3]; aequorin luminescence) [nM] | EC50 (human 5-HT1A receptor [4]) [nM] | Ki (human 5-HT1A receptor [5]) [nM]
Cn1ncc2c1CCCC(CCN1CCN(c3nsc4ccccc34)CC1)C2=O (centres unmarked) [Example 31] | 0.305 | 0.47 | 2.71 | 40 | 1200 |  |  |  | 
Cn1ccc2c1CCCN(CCN1CCN(c3nsc4ccccc34)CC1)C2=O [Example 165] | 0.265 | 1.2 |  | 44 | 7900 |  | 15.4 |  | 
Cc1ccc2c(n1)C(=O)N(CCN1CCC(c3noc4ccccc34)CC1)CC2 [Example 184] | <0.05 | 27 |  | 59 | 800 |  | 95.5 |  | 
Cc1noc2c1C(=O)N(CCN1CCN(c3nsc4ccccc34)CC1)CC2 [Example 34] | 0.124 | 0.7 | 8 | 54 | 2500 |  |  |  | 
O=C1c2cccnc2CCN1CCN1CCN(c2nsc3ccccc23)CC1 [Example 9] | 0.100 | 2.24 |  | 43 | 2300 |  |  |  | 
CC1CN(CCN2CCC(c3noc4ccccc34)CC2)C(=O)c2ccn(C)c21 (centres unmarked) [Example 82] | 0.072 | 0.87 | 46 | 61 | 1900 |  |  |  | 
Cc1nc2c(o1)C(=O)N(CCN1CCN(c3nsc4ccccc34)CC1)CCC2 [Example 46] | 0.018 | 2.8 | 52 | 58 | 3700 |  |  |  | 
O=C1c2ncccc2CCN1CCN1CCC(c2noc3cc(F)ccc23)CC1 [Example 125] | <0.05 | 0.27 |  |  | < 300 |  | 7.15 |  | 
Cn1ncc2c1CCCC(CCN1CCC(c3noc4ccccc34)CC1)C2=O (centres unmarked) [Example 30] | 0.065 | 0.76 | 43 | 42 | 900 |  |  |  | 
O=C1c2c(Br)nn(Br)c2CCN1CCN1CCN(c2nsc3ccccc23)CC1 [Example 69] |  | 1 |  | 45 |  | 360 |  | 33.9 | 10.4
Cc1cc2c(C3CCN(CCN4CCc5cccnc5C4=O)CC3)noc2cc1F [Example 6] | 0.061 | 68 | 651 | 31 | 2200 |  |  |  | 
O=C1c2ncccc2CCN1CCN1CCC(c2nsc3ccccc23)CC1 [Example 26] | <0.01 | 1.92 | 4.49 | 50 | 800 |  |  |  | 
Cc1c2c(nn1C)CCN(CCN1CCN(c3noc4ccccc34)CC1)C2=O [Example 171] | <0.05 | 2.6 |  | 56 | 6600 |  | 45.9 |  | 
Cc1nc2c(o1)CCCN(CCN1CCN(c3nsc4ccccc34)CC1)C2=O [Example 52] | 0.043 | 4.7 | 12 | 77 | 4900 |  |  |  | 
O=C1c2ncccc2CCN1CCN1CCN(c2noc3cc(Cl)ccc23)CC1 [Example 124] |  | 77 |  |  |  |  | 120 |  | 
